≈ marks a conversion by molar mass, not a printed value. Like-named read-outs stand apart in the source and are kept apart here.
Key:
[1] = test system: T. cruzi Dm28c epimastigotes; experiment: T. cruzi epimastigote growth inhibition; type: cell-based, Trypanosoma cruzi; details: read-out: T. cruzi IC50 (EPI)
[2] = test system: M. tuberculosis Erdman; experiment: M. tuberculosis Erdman growth inhibition; type: cell-based, Mycobacterium tuberculosis
[3] = dog, in vivo; cited from earlier work
[4] = DSC of DMPC bilayers with inhibitor; type: physicochemical; details: for Tm (main transition) / ΔH / ΔT1/2: 10 wt % inhibitor, PBS pH 7.4, heating; for Decrease of Tm compared to DMPC without inhibitor: heating
[5] = test system: M. smegmatis; experiment: M. smegmatis cell growth inhibition; type: cell-based, Mycobacterium smegmatis
[6] = in vitro; details: human
[7] = test system: M. abscessus strain PIPD1^R1 (A309P mutation in MmpL3)
[8] = test system: Bacillus subtilis; experiment: B. subtilis growth inhibition; type: cell-based; details: read-out: Bs IC50
[9] = test system: L. mexicana promastigotes; experiment: L. mexicana promastigote growth inhibition; type: cell-based, Leishmania mexicana
[10] = test system: L. donovani promastigotes; experiment: L. donovani promastigote growth inhibition; type: cell-based, Leishmania donovani; details: read-out: L. donovani IC50
[11] = test system: M. abscessus smooth variant; experiment: microbe, parasite or virus in culture; type: cell-based; details: for MIC: Mycobacteroides abscessus
[12] = test system: T. brucei bloodstream forms; experiment: T. brucei bloodstream form growth inhibition; type: cell-based, Trypanosoma brucei; details: read-out: T. brucei IC50
[13] = test system: M. tuberculosis H37Rv; experiment: M. tuberculosis H37Rv growth inhibition; type: cell-based, Mycobacterium tuberculosis
[14] = test system: Plasmodium falciparum asexual blood stages; experiment: P. falciparum asexual blood stage; type: cell-based
[15] = in vitro; details: human; remark: listed apart in the source
[16] = DSC of DSPG bilayers with inhibitor; type: physicochemical; details: for Tm (main transition) / ΔH / ΔT1/2: 10 wt % inhibitor, PBS pH 7.4, heating; for Broadening of main transition peak ΔΤ1/2 compared to pure DSPG / Decrease of Tm compared to DSPG alone: heating
[17] = rat, in vivo; cited from earlier work
[18] = target: M. tuberculosis MmpL3 (MtMmpL3) (Mycobacterium tuberculosis, UniProt P9WJV5); experiment: Surface plasmon resonance binding to MmpL3; details: for koff: 1:1 Langmuir binding model
M. tuberculosis MmpL3 (MtMmpL3), sequence (P9WJV5 whole entry): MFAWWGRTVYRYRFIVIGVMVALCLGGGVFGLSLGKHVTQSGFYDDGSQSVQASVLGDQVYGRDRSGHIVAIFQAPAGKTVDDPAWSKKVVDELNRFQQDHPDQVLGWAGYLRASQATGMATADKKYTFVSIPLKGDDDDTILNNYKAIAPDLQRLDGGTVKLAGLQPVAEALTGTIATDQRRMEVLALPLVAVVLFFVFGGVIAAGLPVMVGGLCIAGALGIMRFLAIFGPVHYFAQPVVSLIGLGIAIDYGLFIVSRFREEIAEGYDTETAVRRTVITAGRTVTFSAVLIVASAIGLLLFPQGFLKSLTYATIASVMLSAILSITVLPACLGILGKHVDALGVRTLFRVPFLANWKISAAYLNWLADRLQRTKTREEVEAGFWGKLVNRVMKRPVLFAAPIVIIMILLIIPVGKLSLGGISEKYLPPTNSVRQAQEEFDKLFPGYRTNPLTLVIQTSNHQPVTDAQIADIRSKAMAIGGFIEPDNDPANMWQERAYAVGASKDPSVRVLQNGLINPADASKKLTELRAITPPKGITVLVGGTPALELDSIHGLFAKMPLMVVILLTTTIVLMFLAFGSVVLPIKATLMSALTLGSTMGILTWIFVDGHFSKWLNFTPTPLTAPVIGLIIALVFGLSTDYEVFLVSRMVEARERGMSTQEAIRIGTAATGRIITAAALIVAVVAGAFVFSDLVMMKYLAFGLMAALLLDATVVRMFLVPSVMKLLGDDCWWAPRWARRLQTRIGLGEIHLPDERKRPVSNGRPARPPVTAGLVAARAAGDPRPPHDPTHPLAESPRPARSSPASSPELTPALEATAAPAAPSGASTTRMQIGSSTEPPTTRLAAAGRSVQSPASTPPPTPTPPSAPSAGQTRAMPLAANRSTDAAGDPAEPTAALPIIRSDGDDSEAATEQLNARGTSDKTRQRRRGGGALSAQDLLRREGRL

[19] = test system: T. cruzi Dm28c intracellular amastigotes; experiment: T. cruzi intracellular amastigote inhibition; type: cell-based, Trypanosoma cruzi; details: read-out: T. cruzi IC50 (PAR)
[20] = [14C-SQ109], mice; cited from earlier work
[21] = test system: E. coli; experiment: E. coli growth inhibition; type: cell-based, Escherichia coli; details: for IC50: read-out: Ec IC50
[22] = test system: M. abscessus rough variant; experiment: microbe, parasite or virus in culture; type: cell-based
[23] = test system: M. tuberculosis HN878; experiment: M. tuberculosis HN878 growth inhibition; type: cell-based, Mycobacterium tuberculosis; details: for Mtb HN878 MIC: visual inspection
[24] = Rat liver microsome stability; details: rat liver microsomes
[25] = Mice liver microsome stability; details: mice microsomes
[26] = Human liver microsome stability
[27] = test system: U2OS host cells; experiment: U2OS host cell growth inhibition; details: read-out: T. cruzi CC50 (U20S)
[28] = test system: HepG2 (human hepatocellular carcinoma) cells; experiment: HepG2 cell line viability
[29] = test system: M. abscessus strain PIPD1^R1 (A309P mutation in MmpL3); details: cited from earlier work
[30] = read-out: L. mexicana IC50, promastigotes
[31] = read-out: PfABS IC50 (μM ± S.E.), asexual blood stages
[32] = read-out: Ms IC50, M. smegmatis
[33] = read-out: KD, 1:1 model, 1:1 binding model, from ratio of rate constants
[34] = read-out: KD, 2-state, two-state model, from rate constants
[35] = intracellular amastigotes in U2OS host cells
[36] = read-out: Mtb HN878 IC50, dose-response curves

## CC(C)=CCC/C(C)=C/CNCCNC1C2CC3CC(C2)CC1C3 (stereo not drawn) [Compound 8a, N-geranyl-N΄-(2-adamantyl)ethane-1,2-diamine, reference compound]
[1]; Trypanosoma cruzi
  IC50: 6800 ± 2000 nM
[2]; Mycobacterium tuberculosis, ERDMAN, read-out: Mtb Erdman MIC
  MIC: 1.8 µM (≈ 0.595 µg/mL)
[3]
  half-life: > 5 h
[4]
  Tm (main transition): 20.6 °C
  ΔH: 5.57 kcal/mol
  ΔT1/2: 2.6 °C
  Decrease of Tm compared to DMPC without inhibitor: 3–4 °C
[5]; Mycolicibacterium smegmatis, read-out: Ms IC50, M. smegmatis
  IC50: ~2400 nM
[6]
  CC50: 4100 ± 200 nM
[7]
  Resistance of A309P MmpL3 mutant: not resistant
[8]; Bacillus subtilis
  IC50: 16000 nM
[9]; Leishmania mexicana, read-out: L. mexicana IC50, promastigotes
  IC50: 500 nM
[9]; [30]
  IC50: 730 ± 200 nM
[10]; Leishmania donovani
  IC50: 2000 ± 100 nM
[11]; read-out: MIC against M. abscessus
  MIC: 22 to 44 µM (≈ 7.27 to 14.5 µg/mL)
[11]; read-out: Ma(S) MIC
  MIC: 44 µM (≈ 14.5 µg/mL)
[12]; Trypanosoma brucei
  IC50: 910 ± 30 nM
[13]; Mycobacterium tuberculosis, H37RV, read-out: Mtb H37Rv MIC
  MIC: 1.8 µM (≈ 0.595 µg/mL)
[14]; Plasmodium falciparum, read-out: PfABS IC50 (μM ± S.E.), asexual blood stages
  IC50: 1.6 µM
[14]; [31]
  IC50: 1.58 ± 0.2 µM
[15]
  viability at 20 µM: 97%
[16]
  Tm (main transition): 50.4 °C
  ΔH: 12.9 kcal/mol
  ΔT1/2: 2.1 °C
  Broadening of main transition peak ΔΤ1/2 compared to pure DSPG: 0.2–1.6 °C
  Decrease of Tm compared to DSPG alone: 3–4 °C
[17]
  half-life: > 5 h
[18]; two-state model
  ka1: 429.8 M⁻¹ s⁻¹
  ka2: 0.005315 s⁻¹
  kd1: 1.098 s⁻¹
  kd2: 0.02222 s⁻¹
[19]; Trypanosoma cruzi, U2OS
  IC50: 740 ± 40 nM
[20]
  half-life: 5 h
[21]; Escherichia coli
  IC50: 15000 nM
[22]; Mycobacteroides abscessus, read-out: Ma(R) MIC
  MIC: 22 µM (≈ 7.27 µg/mL)
[23]; Mycobacterium tuberculosis, HN878, read-out: MIC against M. tuberculosis
  MIC: 0.3 to 1 µM (≈ 0.0992 to 0.331 µg/mL)
[23]; Mycobacterium tuberculosis, HN878, read-out: Mtb HN878 IC50, dose-response curves
  IC50: 270 ± 20 nM
[23]; Mycobacterium tuberculosis, HN878, read-out: Mtb HN878 MIC
  MIC: 0.4 µM (≈ 0.132 µg/mL)

## CC(C)=CCCC(C)=CCNCCNC1(C)C2CC3CC(C2)CC1C3 (stereo not drawn) [Compound 8b, N-(3,7-dimethylocta-2,6-dien-1-yl)-N´-(2-methyl-2-adamantanyl)ethane-1,2-diamine]
[1]; epimastigotes
  IC50: 3500 ± 1000 nM
[2]
  Mtb Erdman MIC: 3.5 µM
[4]
  Tm (main transition): 17.9 °C
  ΔH: 6.12 kcal/mol
  ΔT1/2: 2.2 °C
  Decrease of Tm compared to DMPC without inhibitor: ca. 5.6 °C
[5]; [32]
  IC50: 4400 ± 500 nM
[24]
  Intrinsic clearance rate (CLint) relative to SQ109: about twice as large
[25]
  Intrinsic clearance rate (CLint) relative to SQ109: essentially the same
[26]; human liver microsomes
  Intrinsic clearance rate (CLint) relative to SQ109: about twice as large
[26]; human, mice and rat liver microsomes
  Stability relative to SQ109 (% remanent at 60 minutes): 2–4 x
[27]
  CC50: 2800 ± 700 nM
[9]; [30]
  IC50: 430 ± 80 nM
[10]; promastigotes
  IC50: 2000 ± 1000 nM
[11]
  Ma(S) MIC: 43 µM
[12]; bloodstream forms
  IC50: 2100 ± 20 nM
[13]
  Mtb H37Rv MIC: 3.5 µM
[14]; [31]
  IC50: 0.66 ± 0.18 µM
[16]
  Tm (main transition): 50.5 °C
  ΔH: 12.7 kcal/mol
  ΔT1/2: 2.0 °C
  Broadening of main transition peak ΔΤ1/2 compared to pure DSPG: 0.2–1.6 °C
  Decrease of Tm compared to DSPG alone: 3–4 °C
[18]
  koff: 0.6882 s⁻¹
[18]; [33]
  Kd: 188000 nM
[18]; [34]
  Kd: 248000 nM
[18]; two-state model
  ka1: 4958 M⁻¹ s⁻¹
  ka2: 0.01084 s⁻¹
  kd1: 1.613 s⁻¹
  kd2: 0.03486 s⁻¹
[19]; [35]
  IC50: 770 ± 200 nM
[21]
  IC50: 25000 nM
[28]
  HepG2 % viability @ 20 μM: 100%
[22]
  Ma(R) MIC: 22 µM
[23]
  IC50 higher than SQ109, MtHN878: ~ 3 fold
  Mtb HN878 MIC: 0.8 µM
[23]; MtbHN878, MtErdman and MtH37Rv
  Less activity than SQ109 against M. tuberculosis: 2–4 fold
[23]; [36]
  IC50: 860 ± 60 nM

## CCCCC1(NCCNCC=C(C)CCC=C(C)C)C2CC3CC(C2)CC1C3 (stereo not drawn) [Compound 8e, N-(3,7-dimethylocta-2,6-dien-1-yl)-N´-(2-butyladamantan-2-yl)ethane-1,2-diamine]
[1]; epimastigotes
  IC50: 2500 ± 1000 nM
[2]
  Mtb Erdman MIC: 9.7 µM
[4]
  Tm (main transition): 15.7 °C
  ΔH: 5.83 kcal/mol
  ΔT1/2: 2.2 °C
  Decrease of Tm compared to DMPC without inhibitor: ~7.8 °C
[5]; [32]
  IC50: 2500 nM
[27]
  CC50: 1700 ± 1000 nM
[8]
  IC50: 540 nM
[10]; promastigotes
  IC50: 4000 ± 400 nM
[11]
  Activity against M. abscessus higher than SQ109: 4–8 fold
  MIC against M. abscessus: 5.8 to 6.2 µM
  Ma(S) MIC: 6.2 µM
[12]; bloodstream forms
  IC50: 370 ± 20 nM
[13]
  Mtb H37Rv MIC: 12.9 µM
[14]; [31]
  IC50: 0.27 ± 0.04 µM
[16]
  Tm (main transition): 49.0 °C
  ΔH: 9.2 kcal/mol
  ΔT1/2: 3.6 °C
  Broadening of main transition peak ΔΤ1/2 compared to pure DSPG: 2.7 °C
  Decrease of Tm compared to DSPG alone: ~ 5 °C
[18]
  koff: 0.3888 s⁻¹
[18]; [33]
  Kd: 97000 nM
[18]; [34]
  Kd: 108000 nM
[18]; two-state model
  ka1: 5151 M⁻¹ s⁻¹
  ka2: 0.009897 s⁻¹
  kd1: 0.7008 s⁻¹
  kd2: 0.03763 s⁻¹
[19]; [35]
  IC50: 840 ± 500 nM
[21]
  IC50: 7800 nM
[28]; 2 μM
  HepG2 % viability @ 2 μM: 83%
[28]
  HepG2 % viability @ 20 μM: 50%
[22]
  Ma(R) MIC: 6.2 µM
[23]; [36]
  IC50: 2500 ± 200 nM
[23]
  Mtb HN878 MIC: 3 µM

## CC(C)=CCCC(C)=CCNCCNC1(c2ccccc2)C2CC3CC(C2)CC1C3 (stereo not drawn) [Compound 8h, N-(3,7-dimethylocta-2,6-dien-1-yl)-N´-(2-phenyl-adamantan-2-yl)ethane-1,2-diamine]
[1]; epimastigotes
  IC50: 7300 ± 2000 nM
[2]
  Mtb Erdman MIC: 13 µM
[4]
  Tm (main transition): 14.7 °C
  ΔH: 7.12 kcal/mol
  ΔT1/2: 2.7 °C
  Decrease of Tm compared to DMPC without inhibitor: ~8.8 °C
[5]; [32]
  IC50: 5800 nM
[24]
  Intrinsic clearance rate (CLint) relative to SQ109: about twice as large
  Metabolism relative to SQ109: more rapidly metabolized
[25]
  % remanent at 60 minutes relative to SQ109: same % remanent as SQ109 (8a)
  Intrinsic clearance rate (CLint) relative to SQ109: essentially the same
[26]; human liver microsomes
  Intrinsic clearance rate (CLint) relative to SQ109: about twice as large
  Metabolism relative to SQ109: more rapidly metabolized
[27]
  CC50: 3500 ± 1000 nM
[10]; promastigotes
  IC50: 1400 ± 1000 nM
[11]
  Ma(S) MIC: 12 µM
[12]; bloodstream forms
  IC50: 1300 ± 300 nM
[13]
  Mtb H37Rv MIC: 13 µM
[14]; [31]
  IC50: 0.42 ± 0.09 µM
[16]
  Tm (main transition): 48.6 °C
  ΔH: 13.2 kcal/mol
  ΔT1/2: 5.3 °C
  Broadening of main transition peak ΔΤ1/2 compared to pure DSPG: 4.4 °C
  Decrease of Tm compared to DSPG alone: ~ 5 °C
[18]
  koff: 0.465 s⁻¹
[18]; [33]
  Kd: 115000 nM
[18]; [34]
  Kd: 136000 nM
[18]; two-state model
  ka1: 25900 M⁻¹ s⁻¹
  ka2: 0.00526 s⁻¹
  kd1: 4.085 s⁻¹
  kd2: 0.03247 s⁻¹
[19]; [35]
  IC50: 600 ± 40 nM
[21]
  Ec IC50: No inhibition
[28]
  HepG2 % viability @ 20 μM: 100%
[22]
  Ma(R) MIC: 6 µM
[23]; [36]
  IC50: 2300 ± 200 nM
[23]
  Mtb HN878 MIC: 1.6 µM

## Cc1ccccc1CN1CCC(O)(c2ccc(Cl)c(C(F)(F)F)c2)CC1 [PIPD1]
[29]; MmpL3 inhibitor resistance
  Resistance (fold): 32–64 x
[29]
  Resistance of strain PIPD1^R1: very high resistance
